Reference: patent publication US6075054A, “Ortho-substituted benzoylguanidines, process for their preparation, their use as a medicament or diagnostic, and medicament comprising them” (Hoechst Aktiengesellschaft, priority 1997, dated 2000)
Where a name gives a salt, the structure may show the parent alone.

Molecular target: T1, Na^+ /H^+ exchanger of rabbit erythrocytes (Oryctolagus cuniculus, UniProt P23791)
T1 construct: endogenous in cells; host or cells: erythrocytes in whole blood of White New Zealand rabbits (Ivanovas) fed 2% cholesterol
Assay: Inhibition of the Na^+ /H^+ exchanger of rabbit erythrocytes (amiloride-sensitive sodium influx, flame photometry)
Assay type: cell-based, rabbit (White New Zealand)
Settings: erythrocytes of rabbits on 2% cholesterol diet; hyperosmolar salt-sucrose medium, pH 7.4, 37° C.
Source text: Inhibition of the Na^+ /H^+ exchanger of rabbit erythrocytes White New Zealand rabbits (Ivanovas) received a standard diet with 2% cholesterol for six weeks in order to activate the Na^+ /H^+ exchange and thus to be able to determine the Na^+ -influx into the erythrocytes via Na^+ /H^+ exchange by flame photometry. The blood was taken from the auricular arteries and rendered incoagulable by 25 IU of potassium-heparin. A part of each sample was used for the duplicate determination of the hematocrits by centrifugation. Aliquots of 100 μl in each case were used for the measurement of the Na^+ starting content of the erythrocytes.
In order to determine the amiloride-sensitive sodium influx, 100 μl of each blood sample were incubated in 5 ml in each case of a hyperosmolar salt-sucrose medium (mmol/l: 140 NaCl, 3 KCl, 150 sucrose, 0.1 ouabain, 20 tris-hydroxymethylaminomethane) at pH 7.4 and 37° C. The erythrocytes were then washed three times with ice-cold MgCl2 -ouabain solution (mmol/l: 112 MgCl2, 0.1 ouabain) and hemolyzed in 2.0 ml of distilled water. The intracellular sodium content was determined by flame photometry.
The Na^+ net influx was calculated from the difference between sodium starting values and the sodium content of the erythrocytes after incubation. […]

T1 sequence (P23791 whole entry): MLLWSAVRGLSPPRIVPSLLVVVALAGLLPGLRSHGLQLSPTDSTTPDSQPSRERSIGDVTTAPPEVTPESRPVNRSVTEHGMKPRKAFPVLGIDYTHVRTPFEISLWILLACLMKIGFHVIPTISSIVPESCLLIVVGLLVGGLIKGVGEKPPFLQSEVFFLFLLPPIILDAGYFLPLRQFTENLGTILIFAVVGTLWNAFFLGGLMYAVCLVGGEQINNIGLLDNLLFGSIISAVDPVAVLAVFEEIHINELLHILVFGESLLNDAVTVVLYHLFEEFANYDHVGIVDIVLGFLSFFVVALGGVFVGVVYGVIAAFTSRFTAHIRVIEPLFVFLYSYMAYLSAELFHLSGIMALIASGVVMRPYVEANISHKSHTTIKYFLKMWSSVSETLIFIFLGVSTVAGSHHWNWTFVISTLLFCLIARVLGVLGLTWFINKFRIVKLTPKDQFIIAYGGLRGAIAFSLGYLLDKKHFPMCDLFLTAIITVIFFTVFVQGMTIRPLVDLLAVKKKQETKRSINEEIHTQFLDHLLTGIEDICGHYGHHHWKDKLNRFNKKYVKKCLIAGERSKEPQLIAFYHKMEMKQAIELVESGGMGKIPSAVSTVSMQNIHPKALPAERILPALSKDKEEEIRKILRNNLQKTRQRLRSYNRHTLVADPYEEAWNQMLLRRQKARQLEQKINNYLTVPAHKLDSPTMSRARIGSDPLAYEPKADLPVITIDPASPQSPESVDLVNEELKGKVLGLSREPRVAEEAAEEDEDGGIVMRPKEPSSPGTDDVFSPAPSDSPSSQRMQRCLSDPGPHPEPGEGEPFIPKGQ

- IC50: 1.2 nM
Structure (SMILES): Cc1cc(C(C)CO)c(C(F)(F)F)cc1C(=O)N=C(N)N (racemic) [Example 1, hydrochloride]
